According to patent publication US20260049092A1, “ANTIBACTERIAL COMPOUNDS” (Blacksmith Medicines, Inc., priority 2022, published 2026):
Values after ≈ are worked out from the molar mass of the structure shown. Read-outs that look alike come from different tables or passages of the source.

Experiments:
Assay in all cases: Bacterial susceptibility testing (MIC, broth microdilution)
Format in all cases: cell-based
P. aeruginosa ATCC27853 = settings: Pseudomonas aeruginosa
In short: (§1)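 CLSI broth microdilution was run in cation-adjusted Mueller-Hinton broth with an inoculum of 3×10^5–7×10^5 CFU/mL and 2-fold compound dilutions. Plates were incubated in ambient air at 35° C for 18-24 h. MIC was the lowest concentration preventing visible growth (OD600 nm<0.05).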

P. aeruginosa PAO1 = settings: Pseudomonas aeruginosa
In short: as §1

E. coli ATCC25922 = settings: Escherichia coli
In short: as §1

K. pneumoniae ATCC13883 = settings: Klebsiella pneumoniae
In short: as §1

[1] = ATCC27853, broth microdilution, cation adjusted Mueller-Hinton Broth, 35° C., 18-24 h, read-out: P. aeruginosa ATCC27853 MIC
[2] = PAO1, broth microdilution, cation adjusted Mueller-Hinton Broth, 35° C., 18-24 h, read-out: P. aeruginosa PAO1 MIC
[3] = ATCC25922, broth microdilution, cation adjusted Mueller-Hinton Broth, 35° C., 18-24 h, read-out: E. coli ATCC25922 MIC
[4] = ATCC13883, broth microdilution, cation adjusted Mueller-Hinton Broth, 35° C., 18-24 h, read-out: K. pneumoniae ATCC13883 MIC
[5] = ATCC27853, read-out: P. aeruginosa ATCC27853 MIC
[6] = PAO1, read-out: P. aeruginosa PAO1 MIC
[7] = ATCC25922, read-out: E. coli ATCC25922 MIC
[8] = ATCC13883, read-out: K. pneumoniae ATCC13883 MIC

SMILES	MIC (P. aeruginosa ATCC27853; [1])	MIC (P. aeruginosa PAO1; [2])	MIC (E. coli ATCC25922; [3])	MIC (K. pneumoniae ATCC13883; [4])	MIC (P. aeruginosa ATCC27853; [5])	MIC (P. aeruginosa PAO1; [6])	MIC (E. coli ATCC25922; [7])	MIC (K. pneumoniae ATCC13883; [8])
C[C@H](O)c1nccn1[C@@H](C#Cc1ccc(-c2ccc(O[C@H]3CCOC[C@@H]3O)cc2)cc1)CO [Compound 73, (3S,4S)-4-((4′-((S)-4-hydroxy-3-(2-((S)-1-hydroxyethyl)-1H-imidazol-1-yl)but-1-yn-1-yl)-[1,1′-biphenyl]-4-yl)oxy)tetrahydro-2H-pyran-3-ol]	8 mg/L (≈ 17.8 µM)	2 mg/L (≈ 4.46 µM)	2 mg/L (≈ 4.46 µM)	2 mg/L (≈ 4.46 µM)				
C[C@H](O)c1nccn1[C@@H](C#Cc1ccc(-c2ccc(N[C@@H]3CCC[C@H]3O)cc2)cc1)CO [Compound 78, (1R,2R)-2-((4′-((S)-4-hydroxy-3-(2-((S)-1-hydroxyethyl)-1H-imidazol-1-yl)but-1-yn-1-yl)-[1,1′-biphenyl]-4-yl)amino)cyclopentan-1-ol]	4 mg/L (≈ 9.27 µM)	4 mg/L (≈ 9.27 µM)	1 mg/L (≈ 2.32 µM)	4 mg/L (≈ 9.27 µM)				
C[C@H](O)c1nccn1[C@@H](C#Cc1ccc(-c2ccc(NC3CN(CCC#N)C3)cc2)cc1)CO [Compound 79, 3-(3-((4′-((S)-4-hydroxy-3-(2-((S)-1-hydroxyethyl)-1H-imidazol-1-yl)but-1-yn-1-yl)-[1,1′-biphenyl]-4-yl)amino)azetidin-1-yl)propanenitrile]					4 mg/L (≈ 8.78 µM)	2 mg/L (≈ 4.39 µM)	1 mg/L (≈ 2.2 µM)	8 mg/L (≈ 17.6 µM)
C[C@H](O)c1nccn1[C@@H](C#Cc1ccc(-c2ccc(NC3CC3)cc2)cc1)CO [Compound 81, (S)-4-(4′-(cyclopropylamino)-[1,1′-biphenyl]-4-yl)-2-(2-((S)-1-hydroxyethyl)-1H-imidazol-1-yl)but-3-yn-1-ol]					8 mg/L (≈ 20.6 µM)	2 mg/L (≈ 5.16 µM)	0.25 mg/L (≈ 0.645 µM)	0.5 mg/L (≈ 1.29 µM)
C[C@H](O)c1nccn1[C@@H](C#Cc1ccc(-c2ccc(OC3CN(CC(F)(F)F)C3)cc2)cc1)CO [Compound 86, (S)-2-(2-((S)-1-hydroxyethyl)-1H-imidazol-1-yl)-4-(4′-((1-(2,2,2-trifluoroethyl)azetidin-3-yl)oxy)-[1,1′-biphenyl]-4-yl)but-3-yn-1-ol]					16 mg/L (≈ 33 µM)	4 mg/L (≈ 8.24 µM)	1 mg/L (≈ 2.06 µM)	2 mg/L (≈ 4.12 µM)
CC(=O)N1CC(Oc2ccc(-c3ccc(C#C[C@@H](CO)n4ccnc4[C@H](C)O)cc3)cc2)C1 [Compound 88, 1-(3-((4′-((S)-4-hydroxy-3-(2-((S)-1-hydroxyethyl)-1H-imidazol-1-yl)but-1-yn-1-yl)-[1,1′-biphenyl]-4-yl)oxy)azetidin-1-yl)ethan-1-one]					4 mg/L (≈ 8.98 µM)	2 mg/L (≈ 4.49 µM)	1 mg/L (≈ 2.24 µM)	2 mg/L (≈ 4.49 µM)
C[C@H](O)c1nccn1[C@@H](C#Cc1ccc(-c2ccc(OC3CN(S(C)(=O)=O)C3)cc2)cc1)CO [Compound 89, (S)-2-(2-((S)-1-hydroxyethyl)-1H-imidazol-1-yl)-4-(4′-((1-(methylsulfonyl)azetidin-3-yl)oxy)-[1,1′-biphenyl]-4-yl)but-3-yn-1-ol]					8 mg/L (≈ 16.6 µM)	4 mg/L (≈ 8.31 µM)	1 mg/L (≈ 2.08 µM)	2 mg/L (≈ 4.15 µM)
CNC(=O)N1CC(Oc2ccc(-c3ccc(C#C[C@@H](CO)n4ccnc4[C@H](C)O)cc3)cc2)C1 [Compound 90, 3-((4′-((S)-4-hydroxy-3-(2-((S)-1-hydroxyethyl)-1H-imidazol-1-yl)but-1-yn-1-yl)-[1,1′-biphenyl]-4-yl)oxy)-N-methylazetidine-1-carboxamide]	2 mg/L (≈ 4.34 µM)	1 mg/L (≈ 2.17 µM)	2 mg/L (≈ 4.34 µM)	4 mg/L (≈ 8.69 µM)				
C[C@H](O)c1nccn1[C@@H](C#Cc1ccc(-c2ccc(OC3CN(C(=O)CO)C3)cc2)cc1)CO [Compound 91, 2-hydroxy-1-(3-((4′-((S)-4-hydroxy-3-(2-((S)-1-hydroxyethyl)-1H-imidazol-1-yl)but-1-yn-1-yl)-[1,1′-biphenyl]-4-yl)oxy)azetidin-1-yl)ethan-1-one]					4 mg/L (≈ 8.67 µM)	2 mg/L (≈ 4.33 µM)	2 mg/L (≈ 4.33 µM)	4 mg/L (≈ 8.67 µM)
C[C@H](O)c1nccn1[C@@H](C#Cc1ccc(-c2ccc(OC3CN(CC#N)C3)cc2)cc1)CO [Compound 92, 2-(3-((4′-((S)-4-hydroxy-3-(2-((S)-1-hydroxyethyl)-1H-imidazol-1-yl)but-1-yn-1-yl)-[1,1′-biphenyl]-4-yl)oxy)azetidin-1-yl)acetonitrile]					6 mg/L (≈ 13.6 µM)	3 mg/L (≈ 6.78 µM)	0.75 mg/L (≈ 1.69 µM)	1.5 mg/L (≈ 3.39 µM)
C[C@H](O)c1nccn1[C@@H](C#Cc1ccc(-c2ccc(OC3CN(CCC#N)C3)cc2)cc1)CO [Compound 93, 3-(3-((4′-((S)-4-hydroxy-3-(2-((S)-1-hydroxyethyl)-1H-imidazol-1-yl)but-1-yn-1-yl)-[1,1′-biphenyl]-4-yl)oxy)azetidin-1-yl)propanenitrile]					4 mg/L (≈ 8.76 µM)	2 mg/L (≈ 4.38 µM)	0.5 mg/L (≈ 1.1 µM)	1 mg/L (≈ 2.19 µM)
C[C@H](O)c1nccn1[C@@H](C#Cc1ccc(-c2ccc(OC3CN(C(N)=O)C3)cc2)cc1)CO [Compound 94, 3-((4′-((S)-4-hydroxy-3-(2-((S)-1-hydroxyethyl)-1H-imidazol-1-yl)but-1-yn-1-yl)-[1,1′-biphenyl]-4-yl)oxy)azetidine-1-carboxamide]					2 mg/L (≈ 4.48 µM)	2 mg/L (≈ 4.48 µM)	1 mg/L (≈ 2.24 µM)	4 mg/L (≈ 8.96 µM)

Second part, led by results:

MIC (P. aeruginosa ATCC27853; [1])	MIC (P. aeruginosa PAO1; [2])	MIC (E. coli ATCC25922; [3])	MIC (K. pneumoniae ATCC13883; [4])	SMILES	MIC (P. aeruginosa ATCC27853; [5])	MIC (P. aeruginosa PAO1; [6])	MIC (E. coli ATCC25922; [7])	MIC (K. pneumoniae ATCC13883; [8])
8 mg/L (≈ 19.8 µM)	2 mg/L (≈ 4.96 µM)	4 mg/L (≈ 9.91 µM)	4 mg/L (≈ 9.91 µM)	CC(=O)NCc1ccc(-c2ccc(C#C[C@@H](CO)n3ccnc3[C@H](C)O)cc2)cc1 (single isomer, unassigned) [Compound 143]				
4 mg/L (≈ 8.78 µM)	2 mg/L (≈ 4.39 µM)	1 mg/L (≈ 2.2 µM)	2 mg/L (≈ 4.39 µM)	C[C@H](O)c1nccn1[C@@H](C#Cc1ccc(-c2ccc(NC3CC(NCC#N)C3)cc2)cc1)CO (stereo partly drawn) [Compound 68, 2-((3-((4′-((S)-4-hydroxy-3-(2-((S)-1-hydroxyethyl)-1H-imidazol-1-yl)but-1-yn-1-yl)-[1,1′-biphenyl]-4-yl)amino)cyclobutyl)amino) acetonitrile]				
4 mg/L (≈ 9.23 µM)	4 mg/L (≈ 9.23 µM)	2 mg/L (≈ 4.61 µM)	4 mg/L (≈ 9.23 µM)	C[C@H](O)c1nccn1[C@@H](C#Cc1ccc(-c2ccc(N[C@H]3COC[C@@H]3O)cc2)cc1)CO [Compound 71, (3R,4S)-4-((4′-((S)-4-hydroxy-3-(2-((S)-1-hydroxyethyl)-1H-imidazol-1-yl)but-1-yn-1-yl)-[1,1′-biphenyl]-4-yl)amino)tetrahydrofuran-3-ol]				
8 mg/L (≈ 17.8 µM)	2 mg/L (≈ 4.46 µM)	1 mg/L (≈ 2.23 µM)	2 mg/L (≈ 4.46 µM)	C[C@H](O)c1nccn1[C@@H](C#Cc1ccc(-c2ccc(O[C@@H]3CCOC[C@H]3O)cc2)cc1)CO [Compound 72, (3R,4R)-4-((4′-((S)-4-hydroxy-3-(2-((S)-1-hydroxyethyl)-1H-imidazol-1-yl)but-1-yn-1-yl)-[1,1′-biphenyl]-4-yl)oxy)tetrahydro-2H-pyran-3-ol]				
4 mg/L (≈ 9.25 µM)	2 mg/L (≈ 4.62 µM)	0.5 mg/L (≈ 1.16 µM)	2 mg/L (≈ 4.62 µM)	C[C@H](O)c1nccn1[C@@H](C#Cc1ccc(-c2ccc(OCC3(C)COC3)cc2)cc1)CO [Compound 80, (S)-2-(2-((S)-1-hydroxyethyl)-1H-imidazol-1-yl)-4-(4′-((3-methyloxetan-3-yl)methoxy)-[1,1′-biphenyl]-4-yl)but-3-yn-1-ol]				
> 32 mg/L	4 mg/L (≈ 10.2 µM)	0.25 mg/L (≈ 0.64 µM)	1 mg/L (≈ 2.56 µM)	C[C@H](O)c1nccn1[C@@H](C#Cc1ccc(-c2ccc3c(c2)OCCO3)cc1)CO [Compound 82, (S)-4-(4-(2,3-dihydrobenzo[b][1,4]dioxin-6-yl)phenyl)-2-(2-((S)-1-hydroxyethyl)-1H-imidazol-1-yl) but-3-yn-1-ol]				
> 32 mg/L	16 mg/L (≈ 41.1 µM)	2 mg/L (≈ 5.14 µM)	4 mg/L (≈ 10.3 µM)	C[C@H](O)c1nccn1[C@@H](C#Cc1ccc(-c2ccc3c(c2)NCCO3)cc1)CO [Compound 83, (S)-4-(4-(3,4-dihydro-2H-benzo[b][1,4]oxazin-6-yl)phenyl)-2-(2-((S)-1-hydroxyethyl)-1H-imidazol-1-yl)but-3-yn-1-ol]				
16 mg/L (≈ 41.3 µM)	8 mg/L (≈ 20.6 µM)	8 mg/L (≈ 20.6 µM)	32 mg/L (≈ 82.6 µM)	C[C@H](O)c1nccn1[C@@H](C#Cc1ccc(-c2ccc3c(c2)NC(=O)C3)cc1)CO [Compound 84, 6-(4-((S)-4-hydroxy-3-(2-((S)-1-hydroxyethyl)-1H-imidazol-1-yl)but-1-yn-1-yl)phenyl)indolin-2-one]				
> 32 mg/L	16 mg/L (≈ 42.8 µM)	1 mg/L (≈ 2.68 µM)	2 mg/L (≈ 5.36 µM)	C[C@H](O)c1nccn1[C@@H](C#Cc1ccc(-c2ccc3c(c2)CCN3)cc1)CO [Compound 85, (S)-2-(2-((S)-1-hydroxyethyl)-1H-imidazol-1-yl)-4-(4-(indolin-5-yl)phenyl)but-3-yn-1-ol]				
8 mg/L (≈ 16.5 µM)	4 mg/L (≈ 8.25 µM)	2 mg/L (≈ 4.13 µM)	4 mg/L (≈ 8.25 µM)	C[C@H](O)c1nccn1[C@@H](C#Cc1ccc(-c2ccc(OC3CN(C4(C#N)COC4)C3)cc2)cc1)CO [Compound 87, 3-(3-((4′-((S)-4-hydroxy-3-(2-((S)-1-hydroxyethyl)-1H-imidazol-1-yl)but-1-yn-1-yl)-[1,1′-biphenyl]-4-yl)oxy)azetidin-1-yl)oxetane-3-carbonitrile]				
